From ChEMBL document CHEMBL3885861, “Open TG-GATES”

Species on record: Rattus norvegicus
Assay: Open TG-GATES - Regimen: Single
Assay type: toxicity, organism-based, Sprague-Dawley
Set-up: regimen Single, gender Male, age 6 weeks
Details: in vivo, po, 300 mg/kg, route gavage, dose level High; for APTT / Bas / Eos / Fbg / Hb / Ht / Lym / MCH / MCHC / MCV / Mono / Neu / PT / Plat / RBC / Ret / WBC: tissue Blood; for KIDNEY_L / KIDNEY_R / KIDNEY_TOTAL: tissue Kidney; for LIVER: tissue Liver; for A/G / ALP / ALT / AST / BUN / CRE / Ca / Cl / DBIL / GLC / IP / K / LDH / Na / PL / RALB / TBIL / TC / TG / TP / gamma-GTP: tissue Plasma

ClC(Cl)(Cl)Cl [CARBON TETRACHLORIDE] gave a TERMINAL_BW (3 h) of 206.7 g, an APTT (3 h) of 18.3 s and a Bas (3 h) of 0%. The Eos (3 h) was 1%, the Fbg (3 h) was 242 mg/dL and the Hb (3 h) was 13 g/dL. The Ht (3 h) was 37.2%, the Lym (3 h) was 74.4% and the MCH (3 h) was 21.8 pg. The MCHC (3 h) was 34.9%, the MCV (3 h) was 62.4 fL and the Mono (3 h) was 2.2%. For the same molecule, the Neu (3 h) was 21.8%, the PT (3 h) was 12.5 s and the Plat (3 h) was 125.5 x10_4/uL. For the same molecule, the RBC (3 h) was 595.8 x10_4/ul, the Ret (3 h) was 8.9% and the WBC (3 h) was 76.7 x10_2/uL. The KIDNEY_L (3 h) was 0.9 g, the KIDNEY_R (3 h) was 0.9 g and the KIDNEY_TOTAL (3 h) was 1.8 g. The LIVER (3 h) was 9.4 g, the A/G (3 h) was 1.6 and the ALP (3 h) was 909.4 IU/L. It also gave an ALT (3 h) of 39.4 IU/L, an AST (3 h) of 67.8 IU/L and a BUN (3 h) of 12.2 mg/dL. It also gave a CRE (3 h) of 0.4 mg/dL, a Ca (3 h) of 10.5 mg/dL and a Cl (3 h) of 104 meq/L. The DBIL (3 h) was 0.1 mg/dL, the GLC (3 h) was 187.4 mg/dL and the IP (3 h) was 10.1 mg/dL. For the same molecule, the K (3 h) was 3.8 meq/L, the LDH (3 h) was 201.4 IU/L and the Na (3 h) was 140 meq/L. The PL (3 h) was 156.4 mg/dL, the RALB (3 h) was 3.3 g/dL and the TBIL (3 h) was 0.2 mg/dL. It also gave a TC (3 h) of 79.2 mg/dL, a TG (3 h) of 90.8 mg/dL and a TP (3 h) of 5.4 g/dL. For the same molecule, the gamma-GTP (3 h) was 1.2 IU/L, the TERMINAL_BW (6 h) was 208.2 g and the APTT (6 h) was 18.5 s. For the same molecule, the Bas (6 h) was 0%, the Eos (6 h) was 0.8% and the Fbg (6 h) was 231.4 mg/dL. It also gave a Hb (6 h) of 13.1 g/dL, a Ht (6 h) of 37.9% and a Lym (6 h) of 77.2%. The MCH (6 h) was 21.3 pg, the MCHC (6 h) was 34.6% and the MCV (6 h) was 61.7 fL. The Mono (6 h) was 3%, the Neu (6 h) was 18.4% and the PT (6 h) was 13 s. The Plat (6 h) was 125.2 x10_4/uL, the RBC (6 h) was 614.2 x10_4/ul and the Ret (6 h) was 8.6%. For the same molecule, the WBC (6 h) was 96.7 x10_2/uL, the KIDNEY_L (6 h) was 0.9 g and the KIDNEY_R (6 h) was 0.9 g. For the same molecule, the KIDNEY_TOTAL (6 h) was 1.8 g, the LIVER (6 h) was 9.1 g and the A/G (6 h) was 1.7. The ALP (6 h) was 830.8 IU/L, the ALT (6 h) was 29.8 IU/L and the AST (6 h) was 65.2 IU/L. For the same molecule, the BUN (6 h) was 10.4 mg/dL, the CRE (6 h) was 0.4 mg/dL and the Ca (6 h) was 10.5 mg/dL. It also gave a Cl (6 h) of 103.2 meq/L, a DBIL (6 h) of 0.086 mg/dL and a GLC (6 h) of 201.8 mg/dL. It also gave an IP (6 h) of 10.1 mg/dL, a K (6 h) of 4 meq/L and an LDH (6 h) of 205.8 IU/L. The Na (6 h) was 139.6 meq/L, the PL (6 h) was 150.4 mg/dL and the RALB (6 h) was 3.4 g/dL. It also gave a TBIL (6 h) of 0.1 mg/dL, a TC (6 h) of 73 mg/dL and a TG (6 h) of 68.2 mg/dL. The TP (6 h) was 5.5 g/dL, the gamma-GTP (6 h) was 1.2 IU/L and the TERMINAL_BW (9 h) was 203.7 g. The APTT (9 h) was 19.1 s, the Bas (9 h) was 0% and the Eos (9 h) was 1%. It also gave a Fbg (9 h) of 232.6 mg/dL, a Hb (9 h) of 13.3 g/dL and a Ht (9 h) of 37.9%. For the same molecule, the Lym (9 h) was 80.4%, the MCH (9 h) was 21.5 pg and the MCHC (9 h) was 35%. The MCV (9 h) was 61.7 fL, the Mono (9 h) was 2.8% and the Neu (9 h) was 16%. The PT (9 h) was 12.5 s, the Plat (9 h) was 137.8 x10_4/uL and the RBC (9 h) was 615.2 x10_4/ul. For the same molecule, the Ret (9 h) was 8.7%, the WBC (9 h) was 72.4 x10_2/uL and the KIDNEY_L (9 h) was 0.9 g. It also gave a KIDNEY_R (9 h) of 0.9 g, a KIDNEY_TOTAL (9 h) of 1.8 g and an LIVER (9 h) of 8.8 g. The A/G (9 h) was 1.5, the ALP (9 h) was 987.6 IU/L and the ALT (9 h) was 28.4 IU/L. For the same molecule, the AST (9 h) was 63.2 IU/L, the BUN (9 h) was 9.4 mg/dL and the CRE (9 h) was 0.4 mg/dL. For the same molecule, the Ca (9 h) was 10.5 mg/dL, the Cl (9 h) was 103 meq/L and the DBIL (9 h) was 0.1 mg/dL. For the same molecule, the GLC (9 h) was 193 mg/dL, the IP (9 h) was 10.4 mg/dL and the K (9 h) was 3.9 meq/L. The LDH (9 h) was 200.2 IU/L, the Na (9 h) was 139.4 meq/L and the PL (9 h) was 150.8 mg/dL. It also gave an RALB (9 h) of 3.3 g/dL, a TBIL (9 h) of 0.2 mg/dL and a TC (9 h) of 71 mg/dL. For the same molecule, the TG (9 h) was 80.2 mg/dL, the TP (9 h) was 5.5 g/dL and the gamma-GTP (9 h) was 1.2 IU/L. The TERMINAL_BW (24 h) was 212.9 g, the APTT (24 h) was 19.3 s and the Bas (24 h) was 0%. The Eos (24 h) was 1%, the Fbg (24 h) was 225.4 mg/dL and the Hb (24 h) was 13.5 g/dL. It also gave a Ht (24 h) of 38.6%, a Lym (24 h) of 79% and an MCH (24 h) of 22.4 pg. It also gave an MCHC (24 h) of 34.8%, an MCV (24 h) of 64.4 fL and a Mono (24 h) of 3.8%. The Neu (24 h) was 15.6%, the PT (24 h) was 12.6 s and the Plat (24 h) was 131.5 x10_4/uL. It also gave an RBC (24 h) of 599.6 x10_4/ul, a Ret (24 h) of 7.8% and a WBC (24 h) of 110.3 x10_2/uL. For the same molecule, the KIDNEY_L (24 h) was 1 g, the KIDNEY_R (24 h) was 1 g and the KIDNEY_TOTAL (24 h) was 2 g. For the same molecule, the LIVER (24 h) was 10.2 g, the A/G (24 h) was 1.6 and the ALP (24 h) was 1310.2 IU/L. It also gave an ALT (24 h) of 42.2 IU/L, an AST (24 h) of 75 IU/L and a BUN (24 h) of 16.4 mg/dL. The CRE (24 h) was 0.4 mg/dL, the Ca (24 h) was 10.8 mg/dL and the Cl (24 h) was 103.8 meq/L. For the same molecule, the DBIL (24 h) was 0.08 mg/dL, the GLC (24 h) was 183.8 mg/dL and the IP (24 h) was 8 mg/dL. The K (24 h) was 3.9 meq/L, the LDH (24 h) was 192.6 IU/L and the Na (24 h) was 140 meq/L. It also gave a PL (24 h) of 139.6 mg/dL, an RALB (24 h) of 3.5 g/dL and a TBIL (24 h) of 0.1 mg/dL. The TC (24 h) was 61.4 mg/dL, the TG (24 h) was 69.6 mg/dL and the TP (24 h) was 5.6 g/dL. The gamma-GTP (24 h) was 1 IU/L.
